Results reported in patent publication US20240158446A1, “CYCLIC COMPOUND HAVING SELECTIVE INHIBITORY ACTION ON KRAS OVER HRAS AND NRAS” (CHUGAI SEIYAKU KABUSHIKI KAISHA, priority 2021, published 2024).
*1 amine or outer side, *2 acyl side, *3 side chain or, on linkers, in order; H or OH if unused. Where a SMILES comes first, the peptide text is derived from it. Bridges are numbered along the chain shown (N, C = ends). [ ]: non-standard residue; d: D form. hPhe(3,5-F2-4-CF3) = N[C@@H](CCc1cc(F)c(C(F)(F)F)c(F)c1)C(=O)O; NPrPhe(4-CF3) = CCCN[C@@H](Cc1ccc(C(F)(F)F)cc1)C(=O)O; NMeGly(cPent) = CN[C@H](C(=O)O)C1CCCC1; X8 = C[C@@](N[*:1])(C(=O)[*:2])C1CC1; X11 = CCC[C@](C)(N[*:1])C(=O)[*:2]; αMeCha = C[C@](N)(CC1CCCCC1)C(=O)O; αMeI = CC[C@H](C)[C@](C)(N)C(=O)O; NMeD = CN[C@@H](CC(=O)O)C(=O)O; NMeL = CN[C@@H](CC(C)C)C(=O)O; αMeL = CC(C)C[C@](C)(N)C(=O)O; αMeV = CC(C)[C@](C)(N)C(=O)O; Sar = CNCC(=O)O

What was measured:
[1] = target: GDP-bound NRAS wild-type protein (Homo sapiens, UniProt P01111); assay: Binding to NRAS by surface plasmon resonance (SPR), Single Cycle Kinetics; conditions: SPR, GDP-bound NRAS wild-type protein vs GDP-bound KRAS wild-type protein
[2] = target: GDP-bound KRAS wild-type protein (Homo sapiens, UniProt P01116); assay: Binding to KRAS by surface plasmon resonance (SPR), Single Cycle Kinetics; conditions: SPR Single Cycle Kinetics, GDP-bound KRAS wild-type protein, 1:1 binding model; read-out: KRAS KD
[3] = target: GDP-bound HRAS wild-type protein (Homo sapiens, UniProt P01112); assay: Binding to HRAS by surface plasmon resonance (SPR), Single Cycle Kinetics; conditions: SPR, GDP-bound HRAS wild-type protein vs GDP-bound KRAS wild-type protein
Sequence of GDP-bound HRAS wild-type protein (P01112 whole entry): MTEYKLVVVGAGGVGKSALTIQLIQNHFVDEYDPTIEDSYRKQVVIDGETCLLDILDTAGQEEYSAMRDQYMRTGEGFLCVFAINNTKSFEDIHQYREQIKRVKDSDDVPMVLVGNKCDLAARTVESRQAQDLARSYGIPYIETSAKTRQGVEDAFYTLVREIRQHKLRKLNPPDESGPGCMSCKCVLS

Sequence of GDP-bound NRAS wild-type protein (P01111 whole entry): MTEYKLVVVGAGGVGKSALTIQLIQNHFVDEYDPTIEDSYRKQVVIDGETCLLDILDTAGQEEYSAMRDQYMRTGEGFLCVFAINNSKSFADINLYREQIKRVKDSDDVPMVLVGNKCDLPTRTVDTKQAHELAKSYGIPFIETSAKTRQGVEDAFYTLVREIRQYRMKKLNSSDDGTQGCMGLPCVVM
Sequence of GDP-bound KRAS wild-type protein (P01116 whole entry): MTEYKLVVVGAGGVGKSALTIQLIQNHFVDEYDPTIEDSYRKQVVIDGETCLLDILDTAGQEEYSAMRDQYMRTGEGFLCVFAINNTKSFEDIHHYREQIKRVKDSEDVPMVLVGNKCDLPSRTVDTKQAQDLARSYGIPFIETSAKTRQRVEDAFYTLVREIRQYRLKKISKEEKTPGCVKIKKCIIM

| SMILES | NRAS/KRAS (ratio of KD value with respect to NRAS to KD value with respect to KRAS) [1] | Kd [2] | HRAS/KRAS (ratio of KD value with respect to HRAS to KD value with respect to KRAS) [3] |
| --- | --- | --- | --- |
| CC[C@H](C)[C@@H]1NC(=O)[C@H](CC)N(C)C(=O)C[C@@H](C(=O)N(C)C)N(C)C(=O)[C@H](C2CCCC2)N(C)C(=O)C2(CCC2)NC(=O)[C@@H]2C[C@H](N3CCC(F)(F)CC3)CN2C(=O)[C@H](CCc2cc(F)c(C(F)(F)F)c(F)c2)NC(=O)CN(C)C(=O)[C@H](Cc2ccc(C(F)(F)F)cc2)N2CCCCC[C@@H](C2=O)N(C)C(=O)CN(C)C1=O [PP0731] | B (a compound having 3 or more and less than 10 is denoted as B) | 1.6 nM | B (a compound having 3 or more and less than 10 is denoted as B) |
| CC[C@H](C)[C@@H]1NC(=O)[C@H](CC)N(C)C(=O)C[C@@H](C(=O)N(C)C)N(C)C(=O)[C@H](C2CCCC2)N(C)C(=O)C2(CCC2)NC(=O)[C@@H]2C[C@H](N3CCC(F)(F)CC3)CN2C(=O)[C@H](CCc2cc(F)c(C(F)(F)F)c(F)c2)NC(=O)CN(C)C(=O)[C@H](Cc2ccc(C(F)(F)F)cc2)N2CCCC[C@@H](C2=O)N(C)C(=O)CN(C)C1=O [PP0732] | C (A compound having a KD ratio of 0.1 or more and less than 3 is denoted as C) | 0.039 nM | B (a compound having 3 or more and less than 10 is denoted as B) |
| CC[C@H](C)[C@@H]1NC(=O)[C@H](CC)N(C)C(=O)C[C@@H](C(=O)N(C)C)N(CC)C(=O)[C@H](C2CCCC2)N(C)C(=O)C2(CCC2)NC(=O)[C@@H]2C[C@@H](N3CCC(F)(F)CC3)CN2C(=O)[C@H](CCc2cc(F)c(C(F)(F)F)c(F)c2)NC(=O)CN(C)C(=O)[C@H](Cc2ccc(C(F)(F)F)cc2)N2CCCC[C@@H](C2=O)N(C)C(=O)CN(C)C1=O [PP0733] | B (a compound having 3 or more and less than 10 is denoted as B) | 0.77 nM | B (a compound having 3 or more and less than 10 is denoted as B) |
| CCCN1C(=O)CN(C)C(=O)CN(C)C(=O)[C@H]([C@@H](C)CC)NC(=O)[C@H](CC(C)C)N(C)C(=O)C[C@@H](C(=O)N(C)C)N(C)C(=O)[C@H](C2CCCC2)N(C)C(=O)[C@](C)(C2CC2)NC(=O)[C@@H]2CCCN2C(=O)[C@H](CCc2cc(F)c(C(F)(F)F)c(F)c2)NC(=O)CN(C)C(=O)[C@@H]1Cc1ccc(C(F)(F)F)cc1 [PP0734] ([NMeL]I[Sar][Sar][NPrPhe(4-CF3)][Sar][hPhe(3,5-F2-4-CF3)]P[X8][NMeGly(cPent)][NMeD]-NMe2; lactam N-11) | B (a compound having 3 or more and less than 10 is denoted as B) | 0.38 nM | C (A compound having a KD ratio of 0.1 or more and less than 3 is denoted as C) |
| CCCN1C(=O)CN(C)C(=O)CN(C)C(=O)[C@H]([C@@H](C)CC)NC(=O)[C@H](CC(C)C)N(C)C(=O)C[C@@H](C(=O)N(C)C)N(C)C(=O)[C@H](C2CCCC2)N(C)C(=O)[C@](C)(C(C)C)NC(=O)[C@@H]2CCCN2C(=O)[C@H](CCc2cc(F)c(C(F)(F)F)c(F)c2)NC(=O)CN(C)C(=O)[C@@H]1Cc1ccc(C(F)(F)F)cc1 [PP0735] ([NMeL]I[Sar][Sar][NPrPhe(4-CF3)][Sar][hPhe(3,5-F2-4-CF3)]P[αMeV][NMeGly(cPent)][NMeD]-NMe2; lactam N-11) | B (a compound having 3 or more and less than 10 is denoted as B) | 0.27 nM | C (A compound having a KD ratio of 0.1 or more and less than 3 is denoted as C) |
| CCCN1C(=O)CN(C)C(=O)CN(C)C(=O)[C@H]([C@@H](C)CC)NC(=O)[C@H](CC(C)C)N(C)C(=O)C[C@@H](C(=O)N(C)C)N(C)C(=O)[C@H](C2CCCC2)N(C)C(=O)[C@](C)([C@@H](C)CC)NC(=O)[C@@H]2CCCN2C(=O)[C@H](CCc2cc(F)c(C(F)(F)F)c(F)c2)NC(=O)CN(C)C(=O)[C@@H]1Cc1ccc(C(F)(F)F)cc1 [PP0736] ([NMeL]I[Sar][Sar][NPrPhe(4-CF3)][Sar][hPhe(3,5-F2-4-CF3)]P[αMeI][NMeGly(cPent)][NMeD]-NMe2; lactam N-11) | B (a compound having 3 or more and less than 10 is denoted as B) | 1.8 nM | C (A compound having a KD ratio of 0.1 or more and less than 3 is denoted as C) |
| CCCN1C(=O)CN(C)C(=O)CN(C)C(=O)[C@H]([C@@H](C)CC)NC(=O)[C@H](CC(C)C)N(C)C(=O)C[C@@H](C(=O)N(C)C)N(C)C(=O)[C@H](C2CCCC2)N(C)C(=O)[C@](C)(CCC)NC(=O)[C@@H]2CCCN2C(=O)[C@H](CCc2cc(F)c(C(F)(F)F)c(F)c2)NC(=O)CN(C)C(=O)[C@@H]1Cc1ccc(C(F)(F)F)cc1 [PP0737] ([NMeL]I[Sar][Sar][NPrPhe(4-CF3)][Sar][hPhe(3,5-F2-4-CF3)]P[X11][NMeGly(cPent)][NMeD]-NMe2; lactam N-11) | B (a compound having 3 or more and less than 10 is denoted as B) | 0.55 nM | C (A compound having a KD ratio of 0.1 or more and less than 3 is denoted as C) |
| CCCN1C(=O)CN(C)C(=O)CN(C)C(=O)[C@H]([C@@H](C)CC)NC(=O)[C@H](CC(C)C)N(C)C(=O)C[C@@H](C(=O)N(C)C)N(C)C(=O)[C@H](C2CCCC2)N(C)C(=O)[C@](C)(CC(C)C)NC(=O)[C@@H]2CCCN2C(=O)[C@H](CCc2cc(F)c(C(F)(F)F)c(F)c2)NC(=O)CN(C)C(=O)[C@@H]1Cc1ccc(C(F)(F)F)cc1 [PP0738] ([NMeL]I[Sar][Sar][NPrPhe(4-CF3)][Sar][hPhe(3,5-F2-4-CF3)]P[αMeL][NMeGly(cPent)][NMeD]-NMe2; lactam N-11) | B (a compound having 3 or more and less than 10 is denoted as B) | 0.64 nM | B (a compound having 3 or more and less than 10 is denoted as B) |
| CCCN1C(=O)CN(C)C(=O)CN(C)C(=O)[C@H]([C@@H](C)CC)NC(=O)[C@H](CC(C)C)N(C)C(=O)C[C@@H](C(=O)N(C)C)N(C)C(=O)[C@H](C2CCCC2)N(C)C(=O)[C@](C)(CC2CCCCC2)NC(=O)[C@@H]2CCCN2C(=O)[C@H](CCc2cc(F)c(C(F)(F)F)c(F)c2)NC(=O)CN(C)C(=O)[C@@H]1Cc1ccc(C(F)(F)F)cc1 [PP0739] ([NMeL]I[Sar][Sar][NPrPhe(4-CF3)][Sar][hPhe(3,5-F2-4-CF3)]P[αMeCha][NMeGly(cPent)][NMeD]-NMe2; lactam N-11) | B (a compound having 3 or more and less than 10 is denoted as B) | 3.7 nM | C (A compound having a KD ratio of 0.1 or more and less than 3 is denoted as C) |
